Measurements reported in patent US4508663A, “Process for preparing thiosulfenamide derivatives of N-phosphonomethylglycinonitriles” (Monsanto Company, priority 1983, dated 1985).

How the values were obtained:
Assay in all cases: post-emergence herbicidal activity, greenhouse
Format in all cases: in vivo
Details in all cases: Table I, 4 WAT
[1] = system: Velvetleaf
From the text: (§1) A good grade of top soil is placed in aluminum pans having holes in the bottom and compacted to a depth of 0.95 to 1.27 cm. from the top of the pan. A predetermined number of seeds of each of several dicotyledonous and monocotyledonous annual plant species and/or vegetative propagules for the perennial plant species are placed on the soil and pressed into the soil surface. The seeds and/or vegetative propagules are covered with soil and leveled. The pans are then placed on a sand bench in the greenhouse and watered from below as needed. After the plants reach the desired age (two to three weeks), each pan except for the control pans is removed individually to a spraying chamber and sprayed by means of an atomizer operating at a positive air pressure of approximately 1.46 kg/cm^2 absolute. The atomizer contains 6 ml. of a solution or suspension of the chemical. In that 6 ml., is an amount of a cyclohexanone emulsifying agent mixture to give a spray solution or suspension which contains about 0.4% by weight of the emulsifier. The spray solution or suspension contains a sufficient amount of the candidate chemical in order to give application rates corresponding to those set forth in the tables. The spray solution is prepared by taking an aliquot of a 1.0% by weight stock solution or suspension of the candidate chemical in an organic solvent such as acetone or tetrahydrofuran or in water. The emulsifying agent employed is a mixture comprising 35 weight percent butylamine dodecylbenzene sulfonate and 65 weight percent of a tall oil ethylene oxide condensate having about 11 moles of ethylene oxide per mole of tall oil. The pans are returned to the greenhouse and watered as before and the injury to the plants as compared to the control is observed at approximately two and four weeks as indicated in the tables under WAT and the results recorded. In some instances, the two-week observations are omitted.
(§2) The post-emergence herbicidal activity index used in Table I is as follows: […]

[2] = system: Downy Brome
From the text: as §1, §2

[3] = system: Lambsquarters
From the text: as §1, §2

[4] = system: Barnyardgrass
From the text: as §1, §2

[5] = system: Johnsongrass
From the text: as §1, §2

[6] = system: Quackgrass
From the text: as §1, §2

[7] = system: Yellow Nutsedge
From the text: as §1, §2

[8] = system: Canada Thistle
From the text: as §1, §2

[9] = system: Cocklebur
From the text: as §1, §2

[10] = system: Smartweed
From the text: as §1, §2

[11] = system: Morningglory
From the text: as §1, §2

Measured: post-emergence herbicidal activity index

COc1ccc(SSN(CC#N)CP(=O)(Oc2ccccc2)Oc2ccccc2)cc1 [III, Phosphonic acid, [[(cyanomethyl)[(4-methoxyphenyl)-dithio]amino]methyl]-, diphenyl ester]
0 (0-24% control): [2]; 5.6 kg/h | [6]; 5.6 kg/h | [10]; 11.2 kg/h
2 (50-74% control): [2]; 11.2 kg/h | [4]; 5.6 kg/h | [4]; 11.2 kg/h | [5]; 5.6 kg/h | [5]; 11.2 kg/h | [7]; 11.2 kg/h | [8]; 5.6 kg/h | [8]; 11.2 kg/h | [9]; 11.2 kg/h | [11]; 11.2 kg/h
1 (25-49% control): [1]; 5.6 kg/h | [1]; 11.2 kg/h | [6]; 11.2 kg/h | [7]; 5.6 kg/h | [9]; 5.6 kg/h | [11]; 5.6 kg/h
3 (75-99% control): [3]; 5.6 kg/h
4 (100% control): [3]; 11.2 kg/h

CCCCCCCCSSN(CC#N)CP(=O)(Oc1ccccc1)Oc1ccccc1 [II, Phosphonic acid, [[(cyanomethyl)(octyldithio)-amino]methyl]-, diphenyl ester]
3 (75-99% control): [3]; 5.6 kg/h | [3]; 11.2 kg/h | [5]; 5.6 kg/h
0 (0-24% control): [2]; 11.2 kg/h | [6]; 5.6 kg/h | [10]; 5.6 kg/h
2 (50-74% control): [4]; 11.2 kg/h | [5]; 11.2 kg/h | [7]; 5.6 kg/h | [7]; 11.2 kg/h | [9]; 5.6 kg/h | [9]; 11.2 kg/h | [11]; 5.6 kg/h | [11]; 11.2 kg/h
1 (25-49% control): [1]; 5.6 kg/h | [1]; 11.2 kg/h | [2]; 5.6 kg/h | [4]; 5.6 kg/h | [6]; 11.2 kg/h | [8]; 5.6 kg/h | [8]; 11.2 kg/h | [10]; 11.2 kg/h
